This series in a line: water solubility determination at 20° C. in ion-free water. Particulars: for solubility at 10 min: water. How it is done:
In a clear colorless vessel made of transparent material, such as, for example, glass or plastic, 1 ml of ion-free water or a fraction (amount A in ml) thereof is introduced at a temperature of 20° C.
If the amount of salt B added (in mg) completely dissolved, further amounts of the respective salt were slowly added. Each further addition was recorded and the solution behavior observed. As soon as the first turbidity due to undissolved salt was found by observation against a suitable background, stirring was continued for a further 10 minutes. If undissolved constituents subsequently remained, the sum C (in mg) of the amount of substance employed was determined. If a clear solution resulted again on stirring, further small amounts of the respective salt were added and the mixture was in each case stirred again for 10 minutes until a first turbidity remained on account of undissolved salts. The excess amount of undissolved substance was then brought into solution with stirring by addition of small amounts of water. After a clear solution had been obtained, the sum D (in ml) of the amount of water employed was determined. The solubility of the respective salt per 1 ml of water was then calculated according to the following formula: […]
If undissolved salt still remained then, the undissolved portion was brought into solution by addition of small amounts of water with stirring. After obtainment of a clear solution, the sum E (in ml) of the amounts of water employed was determined. The solubility of the respective salt per 1 ml of water was then calculated according to the following formula: […]

Where [1] appears, read: Solubility of the active compound salt in mg/ml of water, conventional salt of the active compound (salt indicated in brackets), ion-free water, 20° C.
Where [2] appears, read: Solubility of the active compound saccharinate in mg/ml of water, saccharinate salt, ion-free water, 20° C.
Where [3] appears, read: saccharinate salt, ion-free water, 20° C.

Counter-ions that a name gives are not always drawn.

One may read the solubility as the dissolved amount per volume that the medium holds. For the molecule `CNC[C@H](O)c1cccc(O)c1` [Phenylephrine hydrochloride, Phenylephrine], the solubility at 10 min under setting [1] is not below 1250 mg/mL.

In the case of `COc1ccc2c3c1O[C@H]1[C@@H](O)C=C[C@H]4[C@@H](C2)N(C)CC[C@@]341` [Codeine phosphate hemihydrate, Codeine], the solubility at 10 min under setting [1] is not below 250 mg/mL.

Regarding `CC[C@@H](c1cccc(O)c1)[C@@H](C)CN(C)C` [(−)-(1R,2R)-3-(3-dimethylamino-1-ethyl-2-methylpropyl)phenol], the solubility at 10 min is, setting by setting: under setting [2], not below 31 mg/mL; under setting [1], not below 261 mg/mL.

For the molecule `COc1cccc([C@@]2(O)C[C@H](O)CC[C@@H]2CN(C)C)c1` (racemic) [(1RS,3RS,6RS)-6-dimethylaminomethyl-1-(3-methoxy-phenyl)cyclohexane-1,3-diol], the solubility at 10 min runs as follows: under setting [2], not below 71 mg/mL; under setting [1], not below 500 mg/mL.

As for `CC[C@@](F)(c1cccc(O)c1)[C@@H](C)CN(C)C` [(−)-(1S,2S)-3-(3-dimethylamino-1-ethyl-1-fluoro-2-methyl-propyl)phenol], the solubility at 10 min under setting [2] is not below 130 mg/mL and the solubility at 10 min under setting [1] is not below 568 mg/mL.

For the molecule `COc1cc(N)cn[n+]1-c1ccccc1` [Amezinium saccharinate, Amezinium], the solubility at 10 min (Solubility of the active compound saccharinate in mg/ml of water) is not below 8 mg/mL.

Turning to `CNC[C@H](O)c1cccc(O)c1` [Phenylephrine saccharinate, Phenylephrine], the solubility at 10 min under setting [2] was not below 380 mg/mL.

As for `CC[C@H](c1cccc(O)c1)[C@H](C)CN(C)C.O=C1NS(=O)(=O)c2ccccc21` [(+)-(1S,2S)-3-(3-dimethylamino-1-ethyl-2-methylpropyl)phenol saccharinate], the “Solubility of the active compound saccharinate in mg/ml of water” value under setting [3] is ≥ 55 mg/ml of water.

For `CC[C@H](c1cccc(O)c1)[C@H](C)CN(C)C.Cl` [(+)-(1S,2S)-3-(3-dimethylamino-1-ethyl-2-methylpropyl)phenol hydrochloride], the solubility at 10 min under setting [1] was not below 650 mg/mL.

For `COc1ccc2c3c1O[C@H]1[C@@H](O)C=C[C@H]4[C@@H](C2)N(C)CC[C@@]341` [Codeine saccharinate, Codeine], the solubility at 10 min under setting [2] was not below 200 mg/mL.

Regarding `COc1cccc([C@@]2(O)CC[C@H](OCc3ccc(F)cc3)C[C@@H]2CN(C)C)c1` [(+)-(1R,2R,4S)-2-dimethylaminomethyl-4-(4-fluorobenzyl-oxy)-1-(3-methoxy-phenyl)cyclohexanol], the solubility at 10 min is not below 10 mg/mL (ion-free water, Solubility of the active compound saccharinate in mg/ml of water, saccharinate salt, 20° C.) and not below 33 mg/mL (ion-free water, Solubility of the active compound salt in mg/ml of water, conventional salt of the active compound (salt indicated in brackets), 20° C.).

Turning to `CC[C@@](O)(c1cccc(OC)c1)[C@@H](C)CN(C)C` [(−)-(2S,3S)-1-dimethylamino-3-(3-methoxyphenyl)-2-methylpentan-3-ol], the solubility at 10 min under setting [2] was not below 90 mg/mL and the solubility at 10 min under setting [1] is not below 2000 mg/mL.

As to `COc1cc(N)cn[n+]1-c1ccccc1` [Amezinium metilsulfate, Amezinium], the solubility at 10 min (Solubility of the active compound salt in mg/ml of water) was not below 25 mg/mL.

Regarding “Benzalkonium [Benzalkonium saccharinate]”, the “Solubility of the active compound saccharinate in mg/ml of water” value under setting [3] is given as <2 mg/ml of water.

With “Benzalkonium [Benzalkonium hydrochloride]”, the “Solubility of the active compound salt in mg/ml of water” value (conventional salt of the active compound (salt indicated in brackets), ion-free water, 20° C.) was ≥ 500 mg/ml of water.

Source of the values: patent US10160719B2, “Pharmaceutical salts” (GRUNENTHAL GMBH, priority 2001, dated 2018).
